Measurements from BindingDB's records for patent US20230339882 (Betta Pharmaceuticals, 2023).

biological target: Potassium voltage-gated channel subfamily H member 2 (Homo sapiens, UniProt Q12809); test: Electrophysiological Stimulation Protocol
Source text: Measure the peak tail current.

Chain of Potassium voltage-gated channel subfamily H member 2 (Q12809 whole entry): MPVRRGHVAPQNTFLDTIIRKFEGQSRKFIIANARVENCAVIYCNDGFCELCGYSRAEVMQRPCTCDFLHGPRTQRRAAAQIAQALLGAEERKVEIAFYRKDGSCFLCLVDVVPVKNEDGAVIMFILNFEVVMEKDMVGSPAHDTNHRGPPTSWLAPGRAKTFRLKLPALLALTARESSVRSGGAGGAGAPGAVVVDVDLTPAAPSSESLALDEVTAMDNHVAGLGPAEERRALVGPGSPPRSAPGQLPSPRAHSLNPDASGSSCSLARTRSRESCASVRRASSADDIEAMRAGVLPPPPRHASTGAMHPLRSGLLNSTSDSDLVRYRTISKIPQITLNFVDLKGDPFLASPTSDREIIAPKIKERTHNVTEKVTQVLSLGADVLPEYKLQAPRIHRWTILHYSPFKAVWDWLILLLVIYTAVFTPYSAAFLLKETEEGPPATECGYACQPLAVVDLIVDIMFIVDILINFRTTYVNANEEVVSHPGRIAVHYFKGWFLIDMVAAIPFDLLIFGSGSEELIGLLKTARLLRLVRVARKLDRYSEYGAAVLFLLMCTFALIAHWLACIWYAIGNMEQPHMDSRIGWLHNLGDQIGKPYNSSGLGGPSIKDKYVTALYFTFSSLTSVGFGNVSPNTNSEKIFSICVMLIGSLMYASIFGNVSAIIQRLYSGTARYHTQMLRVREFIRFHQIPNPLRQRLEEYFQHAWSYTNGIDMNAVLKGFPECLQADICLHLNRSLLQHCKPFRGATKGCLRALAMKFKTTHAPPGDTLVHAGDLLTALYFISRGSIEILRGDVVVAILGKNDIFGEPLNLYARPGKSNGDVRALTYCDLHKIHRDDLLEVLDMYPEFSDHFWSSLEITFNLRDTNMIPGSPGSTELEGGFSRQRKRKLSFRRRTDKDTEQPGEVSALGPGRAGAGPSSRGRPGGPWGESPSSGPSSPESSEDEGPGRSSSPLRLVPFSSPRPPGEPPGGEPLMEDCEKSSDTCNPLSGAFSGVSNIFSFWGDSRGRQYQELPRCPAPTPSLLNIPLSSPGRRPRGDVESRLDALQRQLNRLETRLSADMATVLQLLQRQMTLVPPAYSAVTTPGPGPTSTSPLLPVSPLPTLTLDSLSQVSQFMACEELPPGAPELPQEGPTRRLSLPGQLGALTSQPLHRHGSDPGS

Row | IC50 | SMILES
1 | > 20000 nM | CC(O)c1ccc(OCC#Cc2cnc(N3CCC4(CC3)Cc3ccccc3[C@H]4N)c(CO)n2)cc1 (stereo not given in full) [US20230339882, Example A71]

biological target: T1, Tyrosine-protein phosphatase non-receptor type 11 (Homo sapiens, UniProt Q06124); test: SHP2 Allosteric Inhibitory Enzyme Activity Assay
T1 sequence (Q06124 whole entry): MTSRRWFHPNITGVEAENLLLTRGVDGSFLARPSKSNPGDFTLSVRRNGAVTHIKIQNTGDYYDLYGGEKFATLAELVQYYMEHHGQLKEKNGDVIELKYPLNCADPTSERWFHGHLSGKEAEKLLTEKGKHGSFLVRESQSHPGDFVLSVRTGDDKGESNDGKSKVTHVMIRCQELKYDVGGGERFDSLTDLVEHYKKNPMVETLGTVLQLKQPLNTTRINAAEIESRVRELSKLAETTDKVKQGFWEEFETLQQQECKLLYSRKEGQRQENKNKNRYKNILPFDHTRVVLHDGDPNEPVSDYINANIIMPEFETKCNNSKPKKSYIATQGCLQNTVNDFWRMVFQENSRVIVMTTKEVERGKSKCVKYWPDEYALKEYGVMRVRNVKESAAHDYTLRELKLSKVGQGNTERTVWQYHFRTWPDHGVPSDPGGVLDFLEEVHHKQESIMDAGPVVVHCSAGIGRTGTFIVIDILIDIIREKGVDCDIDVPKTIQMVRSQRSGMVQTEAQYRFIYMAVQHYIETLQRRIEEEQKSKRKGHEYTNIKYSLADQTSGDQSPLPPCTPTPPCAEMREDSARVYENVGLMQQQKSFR
Source text: SHP2 is allosterically activated by binding of a bis-tyrosyl-phosphorylated peptide to its Src homology 2 (SH2) domain. This later activation step results in the release of the autoinhibitory interface of SHP2, which in turn activates the SHP2 protein tyrosine phosphatase (PTP) and is available for substrate recognition and reaction catalysis. The catalytic activity of SHP2 was monitored using the surrogate DiFMUP in a rapid fluorescence assay format.[0511]experiment procedure:(1) Compound preparation:The compounds of the present invention (10 mM stock solution) were diluted to appropriate times with 100% DMSO, and the final test concentrations of the compounds of the present invention were 10 µM, 3.3333 µM, 1.1111 µM, 0.3704 µM, 0.1235 µM, 0.0412 µM, 0.0137 µM, 0.0046 µM, 0.0015 µM, 0.00 µM;(2) Prepare the enzyme reaction working solution:Perform SHP2 enzymatic assays in 96-well black polystyrene plates (flat bottom, low flange, non-binding surface) (Perki Elmer, Cat#6005270) at room temperature using a final reaction volume of 50 µL and the following assay buffer conditions: 60 mM HEPES, 75 mM NaCl, 75 mM KCl, 0.05% BRIJ-35, 1 mM EDTA, 5 mM DTT.(3) Enzyme-catalyzed reaction and data monitoring:Add the compound of the present invention to the corresponding 96-well plate, and set the blank test well without compound and enzyme only with buffer. Thaw SHP2 Activating Peptide (IRS1_pY1172(dPEG8)pY1222) on ice, add 25 µM to each well, then add 0.2 ng of SHP2 protein sample to the corresponding well plate and incubate at room temperature for 1 hour. The surrogate substrate DiFMUP (Invitrogen, Cat #D6567) was added to the reaction and allowed to react for 1 hour at room temperature. Fluorescence signals were monitored using a microplate reader (Envision, Perki Elmer) using excitation and emission wavelengths of 340 nm and […], respectively.(4) Data analysis:Calculation Formula:Suppression rate %=1-Conversion_sample-Conversion_min/Conversion_max-Conversion_min×100%

Row | SMILES | IC50
2 | CNC(=O)c1cccc(OCC#Cc2cnc(N3CCC4(CC3)Cc3ccccc3[C@H]4N)c(CO)n2)c1 [US20230339882, Example A35] | 2.2 nM
3 | COc1ccccc1OCC#Cc1cnc(N2CCC3(CC2)Cc2ccccc2[C@H]3N)c(CO)n1 [US20230339882, Example A10] | 3.7 nM
4 | N[C@@H]1c2ccccc2CC12CCN(c1ncc(C#CCOc3cccc(Cl)c3F)nc1CO)CC2 [US20230339882, Example A05] | 4.9 nM
5 | N[C@@H]1c2ccccc2CC12CCN(c1ncc(C#CCOc3ccc4[nH]ncc4c3)nc1CO)CC2 [US20230339882, Example A67] | 3.1 nM
6 | CNC(=O)c1ccc(OCC#Cc2cnc(N3CCC4(CC3)Cc3ccccc3[C@H]4N)c(CO)n2)cc1 [US20230339882, Example A72] | 2.6 nM
7 | CN(C)C(=O)c1cccc(OCC#Cc2cnc(N3CCC4(CC3)Cc3ccccc3[C@H]4N)c(CO)n2)c1 [US20230339882, Example A36] | 7.2 nM
8 | N[C@@H]1c2ccccc2CC12CCN(c1ncc(C#CCOc3ccc(C(F)(F)F)nc3)nc1CO)CC2 [US20230339882, Example A63] | 2.6 nM
9 | N[C@@H]1c2ccccc2CC12CCN(c1ncc(C#CCOc3cccc(OC(F)(F)F)c3)nc1CO)CC2 [US20230339882, Example A15] | 11 nM
10 | N[C@@H]1c2ccccc2CC12CCN(c1ncc(C#CCNc3ccc4c(c3)NC(=O)CC4)nc1CO)CC2 [US20230339882, Example A64] | 2.6 nM

More lines, now with the values ahead:

Row | IC50 | SMILES
11 | 5.3 nM | CC(=O)Nc1cccc(OCC#Cc2cnc(N3CCC4(CC3)Cc3ccccc3[C@H]4N)n(C)c2=O)c1 [US20230339882, Example A34]
12 | 2.4 nM | N[C@@H]1c2ccccc2CC12CCN(c1ncc(C#CCOc3ccc4ccc(=O)[nH]c4c3)nc1CO)CC2 [US20230339882, Example A24]
13 | 2.4 nM | CC(=O)c1cccc(OCC#Cc2cnc(N3CCC4(CC3)Cc3ccccc3[C@H]4N)c(CO)n2)c1 [US20230339882, Example A16]
14 | 1.7 nM | N[C@@H]1c2ccccc2CC12CCN(c1ncc(C#CCOc3ccc4c(c3)NC(=O)C4)nc1CO)CC2 [US20230339882, Example A25]
15 | 1 nM | N#Cc1ccc(OCC#Cc2cnc(N3CCC4(CC3)Cc3ccccc3[C@H]4N)c(CO)n2)cc1 [US20230339882, Example A12]
